Assay results: article PMC11316031 (EMBO Reports, 2024)

Tests used:
[1] = biological target: T1, Arp2 (subunit of the Arp2/3 complex) (Homo sapiens, UniProt P61158+P61160); test: TIRF actin branching rate with GST-N-WASP-VCA-activated recombinant Arp2/[…]; also pyrene actin polymerisation; type: biochemical
T1 construct: gene ACTR2; recombinant human Arp2/3 iso-complex containing Arp3/ArpC1A/C5L; with Arp3 (ACTR3, P61158), within the Arp2/3 complex

[2] = biological target: T2, Arp3 (subunit of the Arp2/3 complex) (Homo sapiens, UniProt P61158); test: as above; type: biochemical
T2 construct: gene ACTR3; recombinant human Arp2/3 iso-complex containing Arp3/ArpC1A/C5L; with Arp2/3 complex (Arp2, ArpC1A, ArpC2, ArpC3, ArpC4, ArpC5L)

Row | SMILES | IC50 [1] | IC50 [2]
1 | Cc1[nH]c2ccccc2c1CCNC(=O)c1ccccc1F [CK-666] | 19.9 µM | 
2 | COc1ccc(N2C(=O)CSC2c2cccc(Br)c2)c(OC)c1 (centres unmarked) [CK-869] |  | 860 nM
